For 20 molecules, IC50 results are on record in patent US7304174B2, “CaSR antagonist” (Japan Tobacco Inc., priority 2003, dated 2007).

In this experiment the target is T1, human calcium receptor (Homo sapiens, UniProt P41180).
T1 construct: expressed in transfected cells; host or cells: cell strain derived from rat adrenal, co-transformed with luciferase cDNA
T1 sequence (P41180 20-1078): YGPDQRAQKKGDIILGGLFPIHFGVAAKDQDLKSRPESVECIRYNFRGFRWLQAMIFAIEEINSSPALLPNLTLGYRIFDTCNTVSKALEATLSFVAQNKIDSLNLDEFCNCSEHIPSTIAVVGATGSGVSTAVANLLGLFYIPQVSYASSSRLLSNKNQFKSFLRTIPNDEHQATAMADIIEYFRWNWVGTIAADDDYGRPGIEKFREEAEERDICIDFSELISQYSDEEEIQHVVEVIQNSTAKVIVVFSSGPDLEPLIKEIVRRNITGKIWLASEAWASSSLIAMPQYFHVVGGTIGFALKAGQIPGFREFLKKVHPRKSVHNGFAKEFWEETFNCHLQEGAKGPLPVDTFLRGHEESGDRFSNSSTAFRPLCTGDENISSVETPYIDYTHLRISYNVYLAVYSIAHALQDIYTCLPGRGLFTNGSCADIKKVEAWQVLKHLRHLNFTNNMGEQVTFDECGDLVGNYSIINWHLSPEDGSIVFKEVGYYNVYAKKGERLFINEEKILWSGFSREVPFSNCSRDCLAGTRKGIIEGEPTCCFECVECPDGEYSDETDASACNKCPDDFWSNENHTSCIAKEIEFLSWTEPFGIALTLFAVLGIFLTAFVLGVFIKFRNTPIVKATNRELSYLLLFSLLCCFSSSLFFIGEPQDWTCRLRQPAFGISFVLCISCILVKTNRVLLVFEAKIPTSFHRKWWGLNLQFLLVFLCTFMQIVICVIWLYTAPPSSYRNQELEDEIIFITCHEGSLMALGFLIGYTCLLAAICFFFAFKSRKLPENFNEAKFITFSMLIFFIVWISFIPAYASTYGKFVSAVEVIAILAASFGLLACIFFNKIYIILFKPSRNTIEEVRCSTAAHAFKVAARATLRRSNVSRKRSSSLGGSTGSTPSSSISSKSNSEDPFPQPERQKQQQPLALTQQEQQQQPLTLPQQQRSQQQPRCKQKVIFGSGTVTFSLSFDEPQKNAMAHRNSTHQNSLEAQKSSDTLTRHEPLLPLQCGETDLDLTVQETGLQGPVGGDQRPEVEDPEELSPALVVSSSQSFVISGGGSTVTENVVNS
Description: Evaluation of antagonistic action on calcium receptor using reporter gene (luciferase). Type of experiment: cell-based. The note with it: transformed rat adrenal derived cells, 5 mM calcium chloride, culture 4 hrs, luciferase activity; read-out: Reporter gene assay (IC50, concentration showing 50% inhibitory rate). How it is done:
Evaluation of Antagonistic Action on Calcium Receptor Using Reporter Gene
Luciferase cDNA and human calcium receptor cDNA were introduced into a cell strain derived from rat adrenal to transform the cells, and the transformed cells were cultured in a medium (80 μl, F12 medium containing 0.5% dialyzed horse serum and 0.25% dialyzed bovine fetal serum). A dimethyl sulfoxide solution containing a test compound at 0.1-10000 μM was diluted 100-fold with the medium and added to the test compound group at 10 μl per well (dimethyl sulfoxide final concentration 0.1%). In the same manner as in test compound group, dimethyl sulfoxide 100-fold diluted with medium was added to a control group and a blank group. Then, 50 mM calcium chloride-containing medium was added to every well except the blank group at 10 μl per well (final concentration 5 mM). A medium containing 50 mM calcium chloride was added to the control group at 10 μl per well, such that the final calcium concentration of the medium became 5 mM. A medium alone was added to the blank group. After culture for 4 hrs, luciferase substrate was added and the luciferase activity was measured with a photoluminometer. The inhibitory rate (%) was calculated from the obtained measured values according to the following formula.
Based on the results, the concentration (IC50) showing 50% inhibitory rate was determined. The results are shown in the aforementioned Tables 1 to 60.
For orientation: In a reporter assay the amount or activity of a reporter protein is the signal.
For `CCc1ccc(CC(C)(C)NC[C@@H](O)CO[C@H](C)c2ccccc2-c2ccc(C(=O)O)c(C)c2)cc1` [Example 1-24, 2′-[1-[(2R)-3-[[1-(4-ethylphenyl)-2-methylpropan-2-yl]amino]-2-hydroxypropoxy]ethyl]-3-methylbiphenyl-4-carboxylic acid], the IC50 amounted to 20 nM.

Take `Cc1cc(-c2ccccc2[C@@H](C)OC[C@H](O)CNC(C)(C)Cc2cc(F)c(Cl)cc2F)ccc1C(=O)O` [Example 1-25, 2′-[1-[(2R)-3-[[1-(4-chloro-2,5-difluorophenyl)-2-methylpropan-2-yl]amino]-2-hydroxypropoxy]ethyl]-3-methylbiphenyl-4-carboxylic acid]: the IC50 turned out to be 19 nM.

With `CC(OC[C@H](O)CNC(C)(C)Cc1ccc2ccccc2c1)c1ccccc1-c1ccc(C(=O)O)c(C(F)(F)F)c1` (stereo partly drawn) [Example 1-28, 2′-[1-[(2R)-3-[[1-(naphthalen-2-yl)-2-methylpropan-2-yl]amino]-2-hydroxypropoxy]ethyl]-3-(trifluoromethyl)biphenyl-4-carboxylic acid], the IC50 was 7 nM.

With `COc1ccc(CC(C)(C)NC[C@@H](O)CO[C@H](C)c2ccccc2-c2ccc(C(=O)O)c(C(F)(F)F)c2)c(F)c1` [Example 1-29, 2′-[1-[(2R)-3-[[1-(2-fluoro-4-methoxyphenyl)-2-methylpropan-2-yl]amino]-2-hydroxypropoxy]ethyl]-3-(trifluoromethyl)biphenyl-4-carboxylic acid], the IC50 came out at 82 nM.

Consider `C[C@@H](OC[C@H](O)CNC(C)(C)Cc1ccc(Cl)c(Cl)c1)c1ccccc1-c1ccc(C(=O)O)c(C(F)(F)F)c1` [Example 1-31, 2′-[1-[(2R)-3-[[1-(3,4-dichlorophenyl)-2-methylpropan-2-yl]amino]-2-hydroxypropoxy]ethyl]-3-(trifluoromethyl)biphenyl-4-carboxylic acid], for which the IC50 was 5 nM.

Consider `CCCc1cc(-c2ccccc2[C@@H](C)OC[C@H](O)CNC(C)(C)Cc2ccc3ccccc3c2)ccc1C(=O)O` [Example 1-36, 2′-[1-[(2R)-3-[[1-(naphthalen-2-yl)-2-methylpropan-2-yl]amino]-2-hydroxypropoxy]ethyl]-3-propylbiphenyl-4-carboxylic acid], for which the IC50 was 2 nM.

As to `Cc1c(C(=O)O)ccc(-c2ccccc2[C@@H](C)OC[C@H](O)CNC(C)(C)Cc2ccc3ccccc3c2)c1C` [Example 1-37, 2,3-dimethyl-2′-[1-[(2R)-3-[[1-(naphthalen-2-yl)-2-methylpropan-2-yl]amino]-2-hydroxypropoxy]ethyl]biphenyl-4-carboxylic acid], the IC50 is 3 nM.

Turning to `CCCc1cc(-c2ccccc2[C@@H](C)OC[C@H](O)CNC(C)(C)Cc2ccc(C)c(F)c2)ccc1C(=O)O` [Example 1-38, 2′-[1-[(2R)-3-[[1-(3-fluoro-4-methylphenyl)-2-methylpropan-2-yl]amino]-2-hydroxypropoxy]ethyl]-3-propylbiphenyl-4-carboxylic acid], the IC50 amounted to 2 nM.

On to `Cc1cc(-c2ccccc2[C@@H](C)OC[C@H](O)CNC(C)(C)Cc2ccc3ccccc3c2)cc(C)c1C(=O)O` [Example 1-40, 3,5-dimethyl-2′-[1-[(2R)-3-[[1-(naphthalen-2-yl)-2-methylpropan-2-yl]amino]-2-hydroxypropoxy]ethyl]biphenyl-4-carboxylic acid], for which the IC50 was 3 nM.

On to `C[C@@H](OC[C@H](O)CNC(C)(C)Cc1ccc2ccccc2c1)c1ccccc1-c1ccc(C(=O)O)c(-c2ccccc2)c1` [Example 1-41, 2-[1-[(2R)-3-[[1-(naphthalen-2-yl)-2-methylpropan-2-yl]amino]-2-hydroxypropoxy]ethyl]-m-terphenyl-4′-carboxylic acid], for which the IC50 amounted to 3 nM.

As for `Cc1ccc(CC(C)(C)NC[C@@H](O)CO[C@H](C)c2ccccc2-c2ccc(C(=O)O)c(C)c2C)cc1F` [Example 1-42, 2′-[1-[(2R)-3-[[1-(3-fluoro-4-methylphenyl)-2-methylpropan-2-yl]amino]-2-hydroxypropoxy]ethyl]-2,3-dimethylbiphenyl-4-carboxylic acid], the IC50 turned out to be 24 nM.

As to `Cc1ccc(CC(C)(C)NC[C@@H](O)CO[C@H](C)c2ccccc2-c2cc(C)c(C(=O)O)c(C)c2)cc1F` [Example 1-43, 2′-[1-[(2R)-3-[[1-(3-fluoro-4-methylphenyl)-2-methylpropan-2-yl]amino]-2-hydroxypropoxy]ethyl]-3,5-dimethylbiphenyl-4-carboxylic acid], the IC50 was 16 nM.

As for `C[C@@H](OC[C@H](O)CNC(C)(C)Cc1ccc2ccccc2c1)c1ccccc1-c1ccc(CO)c(C(=O)O)c1` [Example 1-44, 4-(hydroxymethyl)-2′-[1-[(2R)-3-[[1-(naphthalen-2-yl)-2-methylpropan-2-yl]amino]-2-hydroxypropoxy]ethyl]biphenyl-3-carboxylic acid], the IC50 is 9 nM.

Take `CC(C)Cc1cc(-c2ccccc2[C@@H](C)OC[C@H](O)CNC(C)(C)Cc2ccc3ccccc3c2)ccc1C(=O)O` [Example 1-45, 3-isobutyl-2′-[1-[(2R)-3-[[1-(naphthalen-2-yl)-2-methylpropan-2-yl]amino]-2-hydroxypropoxy]ethyl]biphenyl-4-carboxylic acid]: the IC50 was determined as 2 nM.

With `Cc1ccc(CC(C)(C)NC[C@@H](O)CO[C@H](C)c2ccccc2-c2ccc(C(=O)O)c(CC(C)C)c2)cc1F` [Example 1-46, 2′-[1-[(2R)-3-[[1-(3-fluoro-4-methylphenyl)-2-methylpropan-2-yl]amino]-2-hydroxypropoxy]ethyl]-3-isobutylbiphenyl-4-carboxylic acid], the IC50 worked out at 3 nM.

As for `Cc1ccc(CC(C)(C)NC[C@@H](O)CO[C@H](C)c2ccccc2-c2ccc(CO)c(C(=O)O)c2)cc1F` [Example 1-47, 2′-[1-[(2R)-3-[[1-(3-fluoro-4-methylphenyl)-2-methylpropan-2-yl]amino]-2-hydroxypropoxy]ethyl]-4-(hydroxymethyl)biphenyl-3-carboxylic acid], the IC50 worked out at 65 nM.

Consider `C[C@@H](OC[C@H](O)CNC(C)(C)Cc1ccc2ccccc2c1)c1ccccc1-c1ccc(C(=O)O)c(O)c1` [Example 1-49, 2′-[1-[(2R)-3-[[1-(naphthalen-2-yl)-2-methylpropan-2-yl]amino]-2-hydroxypropoxy]ethyl]-3-hydroxybiphenyl-4-carboxylic acid], for which the IC50 came out at 2 nM.

With `Cc1ccc(CC(C)(C)NC[C@@H](O)CO[C@H](C)c2ccccc2-c2ccc(C(=O)O)c(O)c2)cc1F` [Example 1-50, 2′-[1-[(2R)-3-[[1-(3-fluoro-4-methylphenyl)-2-methylpropan-2-yl]amino]-2-hydroxypropoxy]ethyl]-3-hydroxybiphenyl-4-carboxylic acid], the IC50 was determined as 2 nM.

As to `CCc1cc(-c2ccccc2[C@@H](C)OC[C@H](O)CNC(C)(C)Cc2ccc(Cl)c(F)c2)ccc1C(=O)O` [Example 1-51, 3-ethyl-2′-[1-[(2R)-3-[[1-(4-chloro-3-fluorophenyl)-2-methylpropan-2-yl]amino]-2-hydroxypropoxy]ethyl]biphenyl-4-carboxylic acid], the IC50 amounted to 4 nM.

Regarding `CC(C)c1cc(-c2ccccc2[C@@H](C)OC[C@H](O)CNC(C)(C)Cc2ccc(Cl)c(F)c2)ccc1C(=O)O` [Example 1-52, 2′-[1-[(2R)-3-[[1-(4-chloro-3-fluorophenyl)-2-methylpropan-2-yl]amino]-2-hydroxypropoxy]ethyl]-3-isopropylbiphenyl-4-carboxylic acid], the IC50 stood at 3 nM.
